As usually defined, the inhibition is the drop in the measured response relative to a control, in per cent.

In experiment [1] the target is PfCDPK1 (Plasmodium falciparum (isolate 3D7), UniProt P62344). Description: biochemical. Conditions: read-out: PfCDPK1 (% inhibition @ 3 uM).
Experiment [2] deals with PfCDPK4 (Plasmodium falciparum (isolate 3D7), UniProt Q8IBS5). Description: biochemical. Particulars: read-out: PfCDPK4 (% inhibition @ 3 uM).

Molecules are shown by their SMILES.

With `CC(C)n1nc(-c2ccc3cc(OCc4cc(F)cc(Cl)c4)ccc3c2)c2c(N)ncnc21` [Compound 52, 3-(6-(3-chloro-5-fluorobenzyloxy)naphthalen-2-yl)-1-isopropyl-1H-pyrazolo[3,4-d]pyrimidin-4-amine], the inhibition at 3 µM in experiment [1] amounted to 93%; in experiment [2] it was 62%.

As to `CC(Oc1ccc2cc(-c3nn(C(C)C)c4ncnc(N)c34)ccc2c1)c1ccccc1` (stereo not drawn) [Compound 53, 1-isopropyl-3-(6-(1-phenylethoxy)naphthalen-2-yl)-1H-pyrazolo[3,4-d]pyrimidin-4-amine], the inhibition at 3 µM in experiment [1] was 98%; in experiment [2], 57%.

For `CC(C)n1nc(-c2ccc3cc(OCc4ccc(C(C)(C)C)cc4)ccc3c2)c2c(N)ncnc21` [Compound 54, 3-(6-(4-tert-butylbenzyloxy)naphthalen-2-yl)-1-isopropyl-1H-pyrazolo[3,4-d]pyrimidin-4-amine], the inhibition at 3 µM in experiment [1] turned out to be 101%; in experiment [2], 77%.

Consider `CC(C)n1nc(-c2ccc3cc(OCc4ccncc4)ccc3c2)c2c(N)ncnc21` [Compound 55, 1-isopropyl-3-(6-(pyridin-4-ylmethoxy)naphthalen-2-yl)-1H-pyrazolo[3,4-d]pyrimidin-4-amine], for which the inhibition at 3 µM was 100% in experiment [1] and 94% in experiment [2].

On to `CC(C)n1nc(-c2ccc3cc(OCc4ccc(Cl)cc4)ccc3c2)c2c(N)ncnc21` [Compound 56, 3-(6-(4-chlorobenzyloxy)naphthalen-2-yl)-1-isopropyl-1H-pyrazolo[3,4-d]pyrimidin-4-amine], for which the inhibition at 3 µM in experiment [1] came to 93%; in experiment [2], 73%.

For the compound `Cn1ccc2cc(-c3nn(CC4CCNCC4)c4ncnc(N)c34)ccc21` [Compound 57, 3-(1-methyl-1H-indol-5-yl)-1-(piperidin-4-ylmethyl)-1H-pyrazolo[3,4-d]pyrimidin-4-amine], the inhibition at 3 µM in experiment [1] came to 85%; in experiment [2], 82%.

As to `CC(C)(C)n1nc(-c2ccc(NC(=O)CCl)cc2)c2c(N)ncnc21` [Compound 58, N-(4-(4-amino-1-tert-butyl-1H-pyrazolo[3,4-d]pyrimidin-3-yl)phenyl)-2-chloroacetamide], the inhibition at 3 µM in experiment [1] was 97%; in experiment [2] it was 50%.

Take `CC(C)C(=O)Nc1ccc(-c2nn(C(C)(C)C)c3ncnc(N)c23)cc1` [Compound 59, N-(4-(4-amino-1-tert-butyl-1H-pyrazolo[3,4-d]pyrimidin-3-yl)phenyl)isobutyramide]: the inhibition at 3 µM turned out to be 98% in experiment [1] and 79% in experiment [2].

`CC(C)(C)C(=O)Nc1ccc(-c2nn(C(C)(C)C)c3ncnc(N)c23)cc1` [Compound 60, N-(4-(4-amino-1-tert-butyl-1H-pyrazolo[3,4-d]pyrimidin-3-yl)phenyl)pivalamide]: the inhibition at 3 µM worked out at 98% in experiment [1] and 85% in experiment [2].

Take `CCCC(=O)Nc1ccc(-c2nn(C(C)(C)C)c3ncnc(N)c23)cc1` [Compound 61, N-(4-(4-amino-1-tert-butyl-1H-pyrazolo[3,4-d]pyrimidin-3-yl)phenyl)butyramide]: the inhibition at 3 µM was 101% in experiment [1] and 80% in experiment [2].

In the case of `CC(C)CC(=O)Nc1ccc(-c2nn(C(C)(C)C)c3ncnc(N)c23)cc1` [Compound 62, N-(4-(4-amino-1-tert-butyl-1H-pyrazolo[3,4-d]pyrimidin-3-yl)phenyl)-3-methylbutanamide], the inhibition at 3 µM in experiment [1] stood at 102%; in experiment [2], 95%.

For `CC(C)(C)n1nc(-c2ccc(NC(=O)C3CCCC3)cc2)c2c(N)ncnc21` [Compound 63, N-(4-(4-amino-1-tert-butyl-1H-pyrazolo[3,4-d]pyrimidin-3-yl)phenyl)cyclopentanecarboxamide], the inhibition at 3 µM is 103% in experiment [1] and 96% in experiment [2].

For the compound `CC(C)(C)n1nc(-c2ccc(NC(=O)C3CCCCC3)cc2)c2c(N)ncnc21` [Compound 64, N-(4-(4-amino-1-tert-butyl-1H-pyrazolo[3,4-d]pyrimidin-3-yl)phenyl)cyclohexanecarboxamide], the figures for the inhibition at 3 µM in experiment [1] and in experiment [2] were 101% and 66%, respectively.

With `CC(C)(C)n1nc(-c2ccc(NC(=O)c3ccccc3)cc2)c2c(N)ncnc21` [Compound 65, N-(4-(4-amino-1-tert-butyl-1H-pyrazolo[3,4-d]pyrimidin-3-yl)phenyl)benzamide], the inhibition at 3 µM in experiment [1] is 101%; in experiment [2], 53%.

As for `CC(C)(C)n1nc(-c2ccc(NC(=O)Cc3ccccc3)cc2)c2c(N)ncnc21` [Compound 66, N-(4-(4-amino-1-tert-butyl-1H-pyrazolo[3,4-d]pyrimidin-3-yl)phenyl)-2-phenylacetamide], the inhibition at 3 µM in experiment [1] stood at 100%; in experiment [2] it was 77%.

In the case of `CCC(=O)Nc1ccc(-c2nn(C(C)(C)C)c3ncnc(N)c23)cc1` [Compound 67, N-(4-(4-amino-1-tert-butyl-1H-pyrazolo[3,4-d]pyrimidin-3-yl)phenyl)propionamide], the inhibition at 3 µM in experiment [1] is 96%; in experiment [2] it was 49%.

Take `CCOc1ccc2cc(-c3nc(C(C)(C)C)n4ccnc(N)c34)ccc2c1` [Compound 69, 3-tert-butyl-1-(6-ethoxynaphthalen-2-yl)imidazo[1,5-a]pyrazin-8-amine]: the inhibition at 3 µM in experiment [1] is 101%; in experiment [2] it was 97%.

Regarding `Cn1ccc2cc(-c3nc(C(C)(C)C)n4ccnc(N)c34)ccc21` [Compound 70, 3-tert-butyl-1-(1-methyl-1H-indol-5-yl)imidazo[1,5-a]pyrazin-8-amine], the inhibition at 3 µM in experiment [1] stood at 100%; in experiment [2] it was 96%.

Turning to `COc1ccc2cc(-c3nc(C(C)(C)C)n4ccnc(N)c34)ccc2c1` [Compound 71, 3-tert-butyl-1-(6-methoxynaphthalen-2-yl)imidazo[1,5-a]pyrazin-8-amine], the inhibition at 3 µM turned out to be 101% in experiment [1] and 98% in experiment [2].

Regarding `CC(C)(C)c1nc(-c2cnc3ccccc3c2)c2c(N)nccn12` [Compound 72, 3-tert-butyl-1-(quinolin-3-yl)imidazo[1,5-a]pyrazin-8-amine], the inhibition at 3 µM in experiment [1] was determined as 94%; in experiment [2] it was 91%.

In the case of `Nc1ncnc2c1c(-c1ccc(-c3ccccc3)c(F)c1)nn2CC1CCNCC1` [Compound 73, 3-(2-fluorobiphenyl-4-yl)-1-(piperidin-4-ylmethyl)-1H-pyrazolo[3,4-d]pyrimidin-4-amine], the inhibition at 3 µM amounted to 87% in experiment [1] and 14% in experiment [2].

Take `N#Cc1cccc(-c2ccc(-c3nn(CC4CCNCC4)c4ncnc(N)c34)cc2)c1` [Compound 74, 4′-(4-amino-1-(piperidin-4-ylmethyl)-1H-pyrazolo[3,4-d]pyrimidin-3-yl)biphenyl-3-carbonitrile]: the inhibition at 3 µM in experiment [1] came out at 97%; in experiment [2], 68%.

On to `Cc1ccc(S(=O)(=O)Nc2ccc(-c3nn(-c4ccccc4)c4ncnc(N)c34)cc2)cc1` [Compound 75, N-(4-(4-amino-1-phenyl-1H-pyrazolo[3,4-d]pyrimidin-3-yl)phenyl)-4-methylbenzenesulfonamide], for which the values for the inhibition at 3 µM in experiment [1] and in experiment [2] were 75% and 5%, respectively.

For the compound `COC(=O)Nc1nc2ccc(C(O)c3ccccc3)cc2[nH]1` (stereo not drawn) [Compound 82], the inhibition at 3 µM in experiment [1] was 56%; in experiment [2] it was 4%.

(Values after patent publication US11247972B2, “Compositions and methods for treating toxoplasmosis, cryptosporidiosis, and other apicomplexan protozoan related diseases” (University of Washington through its Center for …, priority 2010, dated 2022).)
